Measured values published in US8686113B2 (priority 2009, dated 2014).
Converted amounts (≈) assume the structure as drawn. Like-named read-outs stand apart in the source and are kept apart here. Non-standard residues stand in square brackets, D forms with d. Residues, ends and D or L forms follow the SMILES beside them. Hyp = O=C(O)[C@@H]1C[C@@H](O)CN1; Orn = NCCC[C@H](N)C(=O)O

Assays:
[1] = mouse, serum
Protocol: For this, the peptides and peptidomimetics were dissolved in water, mouse serum was added and the peptide concentration was adjusted to 75 μg/mL. While shaking continuously, the mixture was incubated at 37° C. After 0, 30, 60, 120, 240 and 360 minutes, in each case an aliquot was taken and mixed with 15% aqueous trichloroacetic acid (Carl Roth GmbH & Co. KG; Karlsruhe, Germany). After incubation on ice for a further 10 minutes, the precipitated serum proteins were centrifuged off (5 min, 13400 rpm, MiniSpin, Eppendorf AG, Hamburg, Germany). The supernatant was removed, neutralized with 1 mol/L aqueous sodium hydroxide solution (Fluke Chemie GmbH, Buchs, Switzerland) and stored at −20° C. until analysis.
The supernatants were analyzed by RP-HPLC with a linear acetonitrile gradient (Biosolve BV, Valkenswaard, The Netherlands) in the presence of 0.1% trifluoroacetic acid (TFA, UV-grade, Fluka Chemie GmbH, Buchs, Switzerland) as ion-pairing reagent. The fractions were co-crystallized with α-cyanohydroxycinnamic acid (Bruker Daltonik GmbH; Bremen, Germany) as matrix (5.3 mg/mL in 50% acetonitrile in 0.1% aqueous TFA) and were analyzed with a tandem mass spectrometer (MALDI-TOF/TOF-MS, 4700 Proteomics Analyzer; Applied Biosystems GmbH, Weiterstadt, Germany) in the positive-ion reflector mode. The proportion of intact peptides and their degradation products or metabolites could thus be identified and quantified at the individual time points. The control used was 25% aqueous mouse serum, which was analyzed in parallel for the same time intervals.

[2] = system: M. luteus 10240; assay: Growth inhibition assay (microdilution MIC); assay type: cell-based, Micrococcus luteus; conditions: 10240, 20 h
Procedure, shortened: (§1)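 Broth microdilution in 1% TSB with twofold peptide series, final 128 μg/mL to 62.5 ng/mL, against 5×10^6 bacteria/mL stock suspension added 1:1. Incubated 20 h at 37 °C, growth read by absorbance at 595 nm; MIC is the lowest concentration with no growth, determined in triplicate.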

[3] = system: E. coli BL21 A1; assay type: cell-based, Escherichia coli; conditions: for MIC E. coli BL21 A1: 1% TSB, 20 h at 37° C.
Procedure, shortened: as §1

[4] = system: Escherichia coli DSM 10233
Protocol: The minimum inhibitory concentrations (MIC) of the antimicrobial peptides and peptide derivatives were determined in microdilution assays. These used a continuous peptide dilution in sterile flat-bottomed 96-well microtiter plates (polystyrene, Greiner Bio-One GmbH, Frickenhausen, Germany) and a total volume of 100 μL per well. The aqueous peptide or peptidomimetic solutions were diluted with 1% TSB water, to obtain a final concentration of 256 μg/mL. 50 μL of the peptide or peptidomimetic solution was pipetted into the first well of each series and stirred. From this solution, 50 μL was transferred to the second well, stirred and again 50 μL was transferred to the next well, and so on. A double dilution series is obtained, beginning at 256 μg/mL in the first well to 125 ng/mL in the twelfth well. The bacteria, e.g. E. coli BL21 A1, were cultured overnight at 37° C. in nutrient broth (NB, Carl Roth GmbH+Co. KG, Karlsruhe, Germany). 50 μL of a 5×10^6 bacteria/mL suspension in 1% TSB was added to each well of the microtiter plate and thus a final concentration of the peptides or peptidomimetics from 128 μg/mL (well 1) to 62.5 ng/mL (well 12) was established in each series. The plates were incubated at 37° C. for 20 h and then the absorption was measured at 595 nm with a TECAN microtiter plate spectrophotometer (Tecan Trading AG, Mannedorf, Switzerland). The MIC values of all peptides and peptidomimetics were determined in triplicate. Sterile water was used as negative control.
The peptides shown in Table 8 were investigated for their MIC against pathogenic bacteria such as E. coli DSM 10233, K. pneumoniae DSM 681 and P. aeruginosa DSM 3227.

Row | SMILES | half-life ([1]; Half-life in 25% mouse serum, 25% aqueous mouse serum, 37° C., 75 μg/mL peptide) [h] | half-life ([1]; half-life in 25% aqueous mouse serum, 25% serum) [h] | MIC M. luteus 10240 [2] [µg/mL] | MIC values against E. coli [3] [µg/mL] | MIC E. coli BL21 A1 [3] [µg/mL] | MIC E. coli DSM 10233 [4] [µg/mL]
1 | CC[C@H](C)[C@H](NC(=O)[C@@H]1C[C@@H](O)CN1C(=O)[C@H](CCCNC(=N)N)NC(=O)[C@@H]1CCCN1C(=O)[C@@H]1CCCN1C(=O)[C@H](CCCNC(=N)N)NC(=O)[C@@H]1CCCN1C(=O)[C@H](CCCNC(=N)N)NC(=O)[C@@H]1CCCN1C(=O)[C@H](CC(C)C)NC(=O)[C@H](Cc1ccc(O)cc1)NC(=O)[C@@H]1CCCN1C(=O)[C@@H]1CCCN1C(=O)[C@H](CCCCN)NC(=O)[C@H](CC(=O)O)NC(=O)[C@@H](N)C(C)C)C(=O)N[C@@H](Cc1ccc(O)cc1)C(=O)N[C@@H](CC(N)=O)C(=O)N[C@@H](CCCN)C(N)=O [SEQ ID NO. 63] (H-VDKPPYLPRPRPPR[Hyp]IYN[Orn]-NH2) | > 6 | > 6 | 8 (≈ 3.47 µM) | 4 (≈ 1.74 µM) | 4 (≈ 1.74 µM) | 1 to 4
2 | CC[C@H](C)[C@H](NC(=O)[C@@H]1C[C@@H](O)CN1C(=O)[C@H](CCCNC(=N)N)NC(=O)[C@@H]1C[C@@H](O)CN1C(=O)[C@@H]1CCCN1C(=O)[C@H](CCCNC(=N)N)NC(=O)[C@@H]1CCCN1C(=O)[C@H](CCCNC(=N)N)NC(=O)[C@@H]1CCCN1C(=O)[C@H](CC(C)C)NC(=O)[C@H](Cc1ccc(O)cc1)NC(=O)[C@@H]1CCCN1C(=O)[C@@H]1CCCN1C(=O)[C@H](CCCCN)NC(=O)[C@H](CC(=O)O)NC(=O)[C@@H](N)C(C)C)C(=O)N[C@@H](Cc1ccc(O)cc1)C(=O)N[C@@H](CC(N)=O)C(=O)N[C@@H](CCCN)C(N)=O [SEQ ID NO. 108] (H-VDKPPYLPRPRP[Hyp]R[Hyp]IYN[Orn]-NH2) |  |  |  |  | 2 (≈ 0.862 µM) | 1 to 4
3 | CC[C@H](C)[C@H](NC(=O)[C@H](Cc1ccc(O)cc1)NC(=O)[C@H](CC(N)=O)NC(=O)[C@@H](N)CCCN)C(=O)N1C[C@H](O)C[C@H]1C(=O)N[C@@H](CCCNC(=N)N)C(=O)N1CCC[C@H]1C(=O)N1CCC[C@H]1C(=O)N[C@@H](CCCNC(=N)N)C(=O)N1CCC[C@H]1C(=O)N[C@@H](CCCNC(=N)N)C(=O)N1CCC[C@H]1C(=O)N[C@@H](CC(C)C)C(=O)N[C@@H](Cc1ccc(O)cc1)C(=O)N1CCC[C@H]1C(=O)N1CCC[C@H]1C(=O)N[C@@H](CCCCN)C(=O)N[C@@H](CC(=O)O)C(=O)N[C@H](C(N)=O)C(C)C [SEQ ID NO. 114] (H-[Orn]NYI[Hyp]RPPRPRPLYPPKDV-NH2) |  |  |  |  |  | 1 to 4
